Laboratory results: US7863315B2, “2-indolinone derivatives as selective histone deacetylase inhibitors” (Shenzhen Chipscreen Biosciences, Ltd., priority 2008, dated 2011)

Tests used:
[1] = system: total HDAC enzyme (HeLa extract); assay: In vitro inhibition of total HDAC enzyme activity (HDAC Fluorimetric Assay/Drug Discovery Kit, BIOMOL); type: biochemical, human
Procedure: Measurement of in vitro inhibition of total HDAC enzyme activity:
The in vitro inhibition of total HDAC enzyme was determined by HDAC Fluorimetric Assay/Drug Discovery Kit (BIOMOL) according to manufacture's instruction. • 1. Add Assay buffer, diluted trichostatin A or test inhibitor to appropriate wells of the microtiter plate. Following table lists examples of various assay types and the additions required for each test.
• 2. Add diluted HeLa extract or other HDAC sample to all wells except those that are to be “No Enzyme Controls” (Blank). • 3. Allow diluted Fluor de LyS™ Substrate and the samples in the microtiter plate to equilibrate to assay temperature (25° C.). • 4. Initiate HDAC reactions by adding diluted substrate (25 μl) to each well and mixing thoroughly. • 5. Allow HDAC reactions to proceed for desired length of time and then stop them by addition of Fluor de Lys™ Developer (50 μl). Incubate plate at room temperature (25° C.) for 10-15 min. • 6. Read samples in a microtiter-plate reading fluorimeter capable of excitation at a wavelength in the range 350-380 nm and detection of emitted light in the range 440-460 nm.

[2] = target: T1, HDAC6 (α-tubulin acetylation) (Homo sapiens, UniProt Q9UBN7); assay: ELISA assay of acetylation of α-tubulin in HeLa cells; type: cell-based; details: M-HeLa, 24 hours
T1 construct: endogenous in cells; host or cells: HeLa
T1 sequence (Q9UBN7 1-1215): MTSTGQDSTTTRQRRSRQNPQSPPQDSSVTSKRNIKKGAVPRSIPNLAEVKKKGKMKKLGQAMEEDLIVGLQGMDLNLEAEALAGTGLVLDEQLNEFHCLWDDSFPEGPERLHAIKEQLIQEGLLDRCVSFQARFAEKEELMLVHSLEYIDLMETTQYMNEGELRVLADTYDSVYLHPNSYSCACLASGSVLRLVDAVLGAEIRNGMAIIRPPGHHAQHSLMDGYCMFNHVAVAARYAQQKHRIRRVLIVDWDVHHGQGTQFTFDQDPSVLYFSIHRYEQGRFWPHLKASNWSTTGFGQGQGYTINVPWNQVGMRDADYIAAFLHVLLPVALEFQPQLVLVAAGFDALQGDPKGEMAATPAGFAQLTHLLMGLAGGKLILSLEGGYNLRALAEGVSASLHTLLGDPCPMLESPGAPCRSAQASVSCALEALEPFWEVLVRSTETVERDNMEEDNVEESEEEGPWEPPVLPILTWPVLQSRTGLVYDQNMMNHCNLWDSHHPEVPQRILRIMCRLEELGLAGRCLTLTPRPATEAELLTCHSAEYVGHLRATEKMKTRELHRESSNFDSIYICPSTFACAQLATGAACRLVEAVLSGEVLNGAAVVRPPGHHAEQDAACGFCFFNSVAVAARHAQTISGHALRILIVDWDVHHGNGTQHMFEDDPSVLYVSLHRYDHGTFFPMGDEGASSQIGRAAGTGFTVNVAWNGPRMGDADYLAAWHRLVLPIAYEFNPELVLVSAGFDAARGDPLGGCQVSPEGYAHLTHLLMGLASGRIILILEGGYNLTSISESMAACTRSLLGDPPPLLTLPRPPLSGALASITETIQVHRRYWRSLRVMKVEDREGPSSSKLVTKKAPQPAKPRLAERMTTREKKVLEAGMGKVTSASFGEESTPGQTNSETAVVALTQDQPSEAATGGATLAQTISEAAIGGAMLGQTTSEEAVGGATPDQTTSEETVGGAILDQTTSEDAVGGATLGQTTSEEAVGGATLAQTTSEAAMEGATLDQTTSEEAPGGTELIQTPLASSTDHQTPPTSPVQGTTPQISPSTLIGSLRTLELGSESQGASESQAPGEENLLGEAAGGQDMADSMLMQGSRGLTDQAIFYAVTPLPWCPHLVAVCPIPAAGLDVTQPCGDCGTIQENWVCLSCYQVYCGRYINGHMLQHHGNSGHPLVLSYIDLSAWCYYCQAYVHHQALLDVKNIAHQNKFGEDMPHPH
Procedure: Measurement of acetylation activity in cells on substrates:
ELISA assay of acetylation of α-tubulin
This assay is used to measure in vivo inhibition of HDAC6 in a cytoblot assay. Materials and Reagent: • 1. 24-well tissue culture • 2. DMEM Medium containing 10% FBS • 3. 96-well white plate • 4. HeLa cell line • 5. M-PER Mammalian Protein Extraction Reagent (Pierce) • 6. Bradford assay reagent • 7. Anti-acetyl-tubulin (Upstate) • 8. HRP-labeled anti-mouse IgG (Upstate) • 9. Coating Buffer: 15 mM Na2CO3, 35 mM NaHCO3 (pH 9.6) • 10. 10×PBS: 0.58 M Na2HPO4, 0.17M NaH2PO4, 0.68M NaCl (pH 7.4) • 11. Wash Buffer:1×PBS containing 0.05% Tween-20 (PBST) • 12. Blocking Buffer:10 mg/ml bocine serum albumin (BSA) in PBS • 13. Antibody Dilution Buffer: 5 mg/ml BSA in PBST • 14. Enhanced chemiluminescence (ECL) (Amersham)
Procedure for performing the assay in 96-well plate: • 1. HeLa cells were seeded at a density of 60000 cells/500 μl/well in 24-well plate and incubated at 37° C. for 24 hours. • 2. Compounds were added and incubated for 24 hours at 37° C. • 3. Culture medium was removed, then washes the cells twice with ice-cold PBS. • 4. Add 100 μl/well of Protein Extraction Reagent and gently shake the mixture for 5 minutes. • 5. Collect the lysate to a 96-well plate respectively. Determine the concentration of protein by Bradford assay. • 6. Coat the wells of a 96-well white plate with 100 μl/well of 2.5 μg whole cell protein in Coating Buffer by incubating overnight at 4° C. • 7. Discard the uncoated proteins and wash the coated wells three times with 200 μl/well of PBST. • 8. Block coated wells by incubating the plate with 200 μl/well of Blocking Buffer for 1 hour at 37° C. • 9. Wells were aspirated and washed three times with 200 μl/well of PBST. • 10. After aspirating, 50 μl/well of Antibody Dilution Buffer containing anti-Ac-tubulin (1:1000) were added to each well and incubated for 2 hour at 37° C. • 11. Wells were aspirated and washed three times with 200 μl/well of PBST. • 12. 50 μl/well of Antibody Dilution Buffer containing HRP-labeled anti-mouse IgG (1:2000) were added to each well and incubated for 2 hour at 37° C. • 13. Wells were aspirated and washed three times with 200 μl/well of PBST. • 14. Wells were washed three times with 200 μl/well of purified water. • 15. Add 50 μl/well of ECL mixture, then read the plates on the plate reader.

With `Cc1[nH]c(/C=N/N=C2\C(=O)Nc3ccc(F)cc32)c(C)c1C(=O)NCCCCC(=O)Nc1ccccc1N` [Example 7, 5-(5-(((5-fluoro-2-oxoindolin-3-ylidene)hydrazono)methyl)-2,4-dimethyl-1H-pyrrole-3-carboxamido)-N-(2-aminophenyl)pentanamide] the “% of Inhibition on Total HDAC Enzyme at 30 μM” value (“% of Inhibition” below) [1] was 2% and the fold induction at 10 µM [2] was 1.03.
For `Cc1[nH]c(/C=N/N=C2\C(=O)Nc3ccc(F)cc32)c(C)c1C(=O)NCCCCC(=O)Nc1ccc(F)cc1N` [Example 8, 5-(5-(((5-fluoro-2-oxoindolin-3-ylidene)hydrazono)methyl)-2,4-dimethyl-1H-pyrrole-3-carboxamido)-N-(2-amino-4-fluorophenyl)pentanamide], the “% of Inhibition” value [1] was −26% and the fold induction at 10 µM [2] was 1.76.
`Cc1[nH]c(/C=N/N=C2\C(=O)Nc3ccc(F)cc32)c(C)c1C(=O)NCCCCCC(=O)NO` [Example 11, 6-(5-(((5-fluoro-2-oxoindolin-3-ylidene)hydrazono)methyl)-2,4-dimethyl-1H-pyrrole-3-carboxamido)-N-hydroxyhexanamide] was tested, and the “% of Inhibition” value [1] was 86% and the fold induction at 10 µM [2] was 2.17.
For `Cc1[nH]c(/C=N/N=C2\C(=O)Nc3ccc(F)cc32)c(C)c1C(=O)NCCCCCC(=O)Nc1ccc(F)cc1N` [Example 12, 6-(5-(((5-fluoro-2-oxoindolin-3-ylidene)hydrazono)methyl)-2,4-dimethyl-1H-pyrrole-3-carboxamido)-N-(2-amino-4-fluorophenyl)hexanamide], the “% of Inhibition” value [1] was 14% and the fold induction at 10 µM [2] was 2.04.
With `Cc1[nH]c(/C=N/N=C2\C(=O)Nc3ccc(F)cc32)c(C)c1C(=O)NCCCCCC(=O)Nc1ccccc1N` [Example 13, 6-(5-(((5-fluoro-2-oxoindolin-3-ylidene)hydrazono)methyl)-2,4-dimethyl-1H-pyrrole-3-carboxamido)-N-(2-aminophenyl)hexanamide] the “% of Inhibition” value [1] was 30% and the fold induction at 10 µM [2] was 2.73.
In the case of `Cc1[nH]c(/C=N/N=C2\C(=O)Nc3ccc(F)cc32)c(C)c1C(=O)NCCCCCCCC(=O)NO` [Example 26, 8-(5-(((5-fluoro-2-oxoindolin-3-ylidene)hydrazono)methyl)-2,4-dimethyl-1H-pyrrole-3-carboxamido)-N-hydroxyoctanamide], the “% of Inhibition” value [1] is reported as 98% and the fold induction at 10 µM [2] is reported as 1.85.
For `Cc1[nH]c(/C=N/N=C2\C(=O)Nc3ccc(F)cc32)c(C)c1C(=O)NCCCCCCCC(=O)Nc1ccc(F)cc1N` [Example 27, 8-(5-(((5-fluoro-2-oxoindolin-3-ylidene)hydrazono)methyl)-2,4-dimethyl-1H-pyrrole-3-carboxamido)-N-(2-amino-4-fluorophenyl)octanamide], the “% of Inhibition” value [1] was 5% and the fold induction at 10 µM [2] was 1.64.
For `Cc1[nH]c(/C=N/N=C2\C(=O)Nc3ccc(F)cc32)c(C)c1C(=O)NCCCCCCCC(=O)Nc1ccccc1N` [Example 28, 8-(5-(((5-fluoro-2-oxoindolin-3-ylidene)hydrazono)methyl)-2,4-dimethyl-1H-pyrrole-3-carboxamido)-N-(2-aminophenyl)octanamide], the “% of Inhibition” value [1] was 18% and the fold induction at 10 µM [2] was 1.74.
For `O=C(CCCCCNC(=O)c1ccc(/C=N/N=C2\C(=O)Nc3ccc(F)cc32)cc1)NO` [Example 31, 6-(4-(((5-fluoro-2-oxoindolin-3-ylidene)hydrazono)methyl)benzamido)-N-hydroxyhexanamide], the “% of Inhibition” value [1] was 89% and the fold induction at 10 µM [2] was 1.88.
For `Nc1ccccc1NC(=O)CCCCCNC(=O)c1ccc(/C=N/N=C2\C(=O)Nc3ccc(F)cc32)cc1` [Example 32, 6-(4-(((5-fluoro-2-oxoindolin-3-ylidene)hydrazono)methyl)benzamido)-N-(2-aminophenyl)hexanamide], the “% of Inhibition” value [1] was 20% and the fold induction at 10 µM [2] was 2.59.
`Nc1ccccc1NC(=O)CCCCCCCNC(=O)c1ccc(/C=N/N=C2\C(=O)Nc3ccc(F)cc32)cc1` [Example 35, 8-(4-(((5-fluoro-2-oxoindolin-3-ylidene)hydrazono)methyl)benzamido)-N-(2-aminophenyl)octanamide] was tested, and the “% of Inhibition” value [1] was 22% and the fold induction at 10 µM [2] was 1.39.
In the case of `Nc1cc(F)ccc1NC(=O)CCCCCCCNC(=O)c1ccc(/C=N/N=C2\C(=O)Nc3ccc(F)cc32)cc1` [Example 36, 8-(4-(((5-fluoro-2-oxoindolin-3-ylidene)hydrazono)methyl)benzamido)-N-(2-amino-4-fluorophenyl)octanamide], the “% of Inhibition” value [1] is reported as −16% and the fold induction at 10 µM [2] is reported as 1.57.
`Nc1ccccc1NC(=O)CCCCCNC(=O)c1ccc(/C=C2\C(=O)Nc3ccc(F)cc32)cc1` [Example 39, 6-(4-((5-fluoro-2-oxoindolin-3-ylidene)methyl)benzamido)-N-(2-aminophenyl)hexanamide] was tested, and the “% of Inhibition” value [1] was 31% and the fold induction at 10 µM [2] was 0.93.
For `Nc1cc(F)ccc1NC(=O)CCCCCNC(=O)c1ccc(/C=C2\C(=O)Nc3ccc(F)cc32)cc1` [Example 40, 6-(4-((5-fluoro-2-oxoindolin-3-ylidene)methyl)benzamido)-N-(2-amino-4-fluorophenyl)hexanamide], the “% of Inhibition” value [1] was 22% and the fold induction at 10 µM [2] was 1.04.
`O=C(CCCCCNC(=O)c1ccc(/C=C2\C(=O)Nc3ccc(F)cc32)cc1)NO` [Example 41, 6-(4-((5-fluoro-2-oxoindolin-3-ylidene)methyl)benzamido)-N-hydroxyhexanamide] was tested, and the “% of Inhibition” value [1] was 96% and the fold induction at 10 µM [2] was 1.47.
`Nc1ccccc1NC(=O)CCCCCNC(=O)c1cccc(/C=C2\C(=O)Nc3ccc(F)cc32)c1` [Example 44, 6-(3-((5-fluoro-2-oxoindolin-3-ylidene)methyl)benzamido)-N-(2-aminophenyl)hexanamide] was tested, and the “% of Inhibition” value [1] was 30% and the fold induction at 10 µM [2] was 2.66.
